Assay results taken from US20260130936A1, “COMPOSITIONS COMPRISING AN ACTIVE INGREDIENT MIXTURE COMPRISING SILICON AND BIOTIN AND METHODS OF USE” (Nutrition21, LLC, priority 2022, published 2026).

Tests used:
[1] = preclinical models; compared to D-biotin; cited from earlier work
Water solubility = type: physicochemical; details: greater than biotin
hair and nail growth = experiment: Hair density, anagen ratio, telogen ratio, nail growth and molecular analysis in rats (Example 4); type: in vivo, Sprague-Dawley rats
Experimental: Twenty-eight female Sprague-Dawley rats (8 weeks old) were randomized into one of the following groups: (i) group (control), shaved; (ii) group (ASI), shaved+ASI (4.14 mg/rat/day); (iii) group (ASI+MgB I), shaved+ASI (4.14 mg/rat/day)+MgB (48.7 μg/rat/day); and (iv) group (ASI+MgB II), shaved+ASI (4.14 mg/rat/day)+MgB (325 μg/rat/day). On day 42, compared with the control group, while hair density (p<0.05, p<0.01, and p<0.0001, respectively) and anagen ratio (p<0.01, p<0.01, and p<0.001) increased in the ASI, ASI+MgB I, and ASI+MgB II groups, telogen ratio decreased (p<0.01, p<0.01, and p<0.001, respectively). In the molecular analysis, VEGF, HGF, and KGF-2 increased in the ASI (p<0.01, p<0.01, and p<0.05, respectively), ASI+MgB I (p<0.0001 for all), and ASI+MgB II (p<0.0001 for all) groups when compared to the control group. […] SIRT-1 and β-catenin increased in the ASI (p<0.05 and p<0.01), ASI+MgB I (p<0.001 for both), and ASI+MgB II (p<0.0001 for both) groups. Wnt-1 increased in the ASI+MgB I (p<0.001) and ASI+MgB II (p<0.0001) groups.

[2] = day 42, compared with the control group

Substance | absorption and uptake in tissue [1] | water solubility relative to biotin (Water solubility) | anagen ratio (hair and nail growth; [2]) | hair density (hair and nail growth; [2]) | telogen ratio (hair and nail growth; [2]) | SIRT-1 and β-catenin (hair and nail growth; molecular analysis) | VEGF, HGF, and KGF-2 (hair and nail growth; molecular analysis, compared to the control group) | nail growth (hair and nail growth; rats)
magnesium biotinate | superior absorption and greater uptake in tissue | about 40 times |  |  |  |  |  | 
inositol-stabilized arginine silicate complex [ASI] |  |  | increased | increased | decreased | increased | increased | did not affect nail growth
